Measurements: article PMC3790769, “Ansamitocin P3 Depolymerizes Microtubules and Induces Apoptosis by Binding to Tubulin at the Vinblastine Site” (PLoS ONE, 2013)

Target: T1, tubulin
T1 construct: tubulin isolated from goat brain (alpha-beta dimer); with alpha-tubulin/beta-tubulin heterodimer
Experiment: intrinsic tryptophan fluorescence quenching of purified tubulin; supported by reduced DTNB cysteine modification
Format: binding, Capra hircus

`COc1cc2cc(c1Cl)N(C)C(=O)C[C@H](OC(=O)C(C)C)[C@]1(C)O[C@H]1[C@H](C)[C@@H]1C[C@@](O)(NC(=O)O1)[C@H](OC)/C=C/C=C(\C)C2` [Ansamitocin P3] showed a Kd of 1300 ± 700 nM.
